The values below come from patent US20220204539A1, “CD73 INHIBITORS” (BioArdis LLC, priority 2019, published 2022).

Bounds are passed on as bounds.

For experiment [1], the target named is T1, Recombinant Human 5′-Nucleotidase (CD73) (Homo sapiens, UniProt P21589).
T1 construct: CHO derived CD73 (Trp27-Lys547), with a C-terminal 6-His tag; 6-His (C); purchased R&D 5795-EN; host or cells: CHO
T1 sequence (P21589 27-547): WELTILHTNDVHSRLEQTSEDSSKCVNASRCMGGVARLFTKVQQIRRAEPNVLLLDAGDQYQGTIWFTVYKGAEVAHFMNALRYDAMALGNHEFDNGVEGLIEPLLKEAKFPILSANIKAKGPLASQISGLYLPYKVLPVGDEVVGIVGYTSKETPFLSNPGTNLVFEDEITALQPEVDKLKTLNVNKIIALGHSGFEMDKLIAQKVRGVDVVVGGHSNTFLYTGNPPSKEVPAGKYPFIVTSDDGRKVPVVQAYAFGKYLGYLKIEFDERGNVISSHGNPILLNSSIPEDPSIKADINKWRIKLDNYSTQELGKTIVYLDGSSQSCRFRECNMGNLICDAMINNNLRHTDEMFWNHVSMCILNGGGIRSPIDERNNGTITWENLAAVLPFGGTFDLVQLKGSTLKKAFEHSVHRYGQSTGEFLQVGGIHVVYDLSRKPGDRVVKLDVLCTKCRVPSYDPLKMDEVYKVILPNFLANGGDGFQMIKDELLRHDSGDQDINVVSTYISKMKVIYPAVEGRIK
The experiment is described as follows: CD73 Enzyme Assay. The note with it: human CD73 0.5 nM, AMP 30 μM, PiColorLock phosphate detection; read-out: Potency (IC50, CD73 enzyme assay). In kind it is biochemical. An outline of the steps: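 Human CD73 (CHO-derived Trp27-Lys547, His-tagged; 0.5 nM final) was preincubated with compound for 15 min at 25° C. in Tris pH 7.5 buffer with MgCl2. It then reacted with 30 μM AMP for 20 min at 37° C., and released phosphate was read by malachite green absorbance at 635 nm. IC50 came from four-parameter fits against enzyme and no-enzyme controls.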

For experiment [2], the target named is T2, Cell surface CD73 of U87 MG human glioblastoma cells (Homo sapiens, UniProt P21589).
T2 construct: Cell surface CD73 catalyzes the conversion of adenosine monophosphate (AMP) to adenosine and inorganic phosphate; endogenous in cells; host or cells: U87 MG human glioblastoma cells
T2 sequence (P21589 27-549): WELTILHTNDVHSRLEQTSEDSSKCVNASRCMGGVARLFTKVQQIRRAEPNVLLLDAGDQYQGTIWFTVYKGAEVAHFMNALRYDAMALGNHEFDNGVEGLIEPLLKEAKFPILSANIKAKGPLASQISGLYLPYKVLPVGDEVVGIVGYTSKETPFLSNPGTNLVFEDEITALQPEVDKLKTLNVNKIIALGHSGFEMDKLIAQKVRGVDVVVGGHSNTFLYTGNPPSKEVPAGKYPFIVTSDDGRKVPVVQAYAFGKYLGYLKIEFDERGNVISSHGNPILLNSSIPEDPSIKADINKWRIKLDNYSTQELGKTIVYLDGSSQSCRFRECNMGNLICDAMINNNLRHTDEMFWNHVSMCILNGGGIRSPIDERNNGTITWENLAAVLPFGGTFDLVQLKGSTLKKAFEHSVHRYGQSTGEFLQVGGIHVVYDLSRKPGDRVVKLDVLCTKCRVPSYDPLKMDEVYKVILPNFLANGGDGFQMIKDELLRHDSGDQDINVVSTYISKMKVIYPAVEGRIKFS
The experiment is described as follows: CD73 Cellular Assay. The note with it: 5000 cells per well, 30 μM AMP substrate, read-out: Potency (IC50, CD73 cellular assay). In kind it is cell-based. The method, boiled down:
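U87 MG cells (5000/well) preincubated with compound 30 min at 37 °C, 5% CO2, in HEPES-buffered saline pH 7.4 with 0.5% DMSO, then 30 μM AMP (final) for 50 min. Released phosphate in supernatant read colorimetrically at 635 nm; IC50 from four-parameter logistic fit versus cells-plus-substrate and cells-only controls.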

One may read the IC50 as the concentration that gives 50% inhibition. Take `O=P(O)(O)CP(=O)(O)OC[C@H]1O[C@@H](c2cnc3c(NC4CCC(F)(F)CC4)nc(Cl)nn23)[C@H](O)[C@@H]1O` [Compound 48, [({[(2R,3S,4R,5S)-5-{2-chloro-4-[(4,4-difluorocyclohexyl)amino]imidazo[2,1-f][1,2,4]triazin-7-yl}-3,4-dihydroxyoxolan-2-yl]methoxy}(hydroxy)phosphoryl)methyl]phosphonic Acid]: the figures for the IC50 in experiment [1] and in experiment [2] were less than 10 nM and 1 to 9.9 nM, respectively.

Take `O=P(O)(O)CP(=O)(O)OC[C@H]1O[C@@H](c2cnc3c(NC4CCC(F)(F)C4)nc(Cl)nn23)[C@H](O)[C@@H]1O` (stereo partly drawn) [Compound 49, (((((2R,3S,4R,1S)-5-(2-chloro-4-((3,3-difluorocyclopentyl)amino)imidazo[2,1-f][1,2,4]triazin-7-yl)-3,4-dihydroxytetrahydrofuran-2-yl)methoxy)(hydroxy)phosphoryl)methyl)phosphonic Acid]: the results for the IC50 in experiment [1] and in experiment [2] were less than 10 nM and less than 1 nM, respectively.

On to `O=P(O)(O)CP(=O)(O)OC[C@H]1O[C@@H](c2cnc3c(NC4CC5CCC4C5)nc(Cl)nn23)[C@H](O)[C@@H]1O` (stereo partly drawn) [Compound 50, [({[(2R,3S,4R,5S)-5-(4-{bicyclo[2.2.1]heptan-2-ylamino}-2-chloroimidazo[2,1-f][1,2,4]triazin-7-yl)-3,4-dihydroxyoxolan-2-yl]methoxy}(hydroxy)phosphoryl)methyl]phosphonic acid], for which the IC50 in experiment [1] was less than 10 nM; in experiment [2], less than 1 nM.

Consider `C[C@H](Nc1nc(Cl)nn2c([C@@H]3O[C@H](COP(=O)(O)CP(=O)(O)O)[C@@H](O)[C@H]3O)cnc12)c1ccc(F)c(F)c1` [Compound 52, (((((2R,3S,4R,5S)-5-(2-chloro-4-(((S)-1-(3,4-difluorophenyl)ethyl)amino)imidazo[2,1-f][1,2,4]triazin-7-yl)-3,4-dihydroxytetrahydrofuran-2-yl)methoxy)(hydroxy)phosphoryl)methyl) phosphonic acid], for which the IC50 in experiment [1] is less than 10 nM; in experiment [2], less than 1 nM.

On to `C[C@H](Nc1nc(Cl)nn2c([C@@H]3O[C@H](COP(=O)(O)CP(=O)(O)O)[C@@H](O)[C@H]3O)cnc12)c1ccc(Cl)c(Cl)c1` [Compound 53, (((((2R,3S,4R,5S)-5-(2-chloro-4-(((S)-1-(3,4-dichlorophenyl)ethyl)amino)imidazo[2,1-f][1,2,4]triazin-7-yl)-3,4-dihydroxytetrahydrofuran-2-yl)methoxy)(hydroxy)phosphoryl)methyl)phosphonic acid], for which the IC50 in experiment [1] was less than 10 nM; in experiment [2], less than 1 nM.

For the molecule `C[C@H](Nc1nc(Cl)nn2c([C@@H]3O[C@H](COP(=O)(O)CP(=O)(O)O)[C@@H](O)[C@H]3O)cnc12)c1ccc(Cl)cc1` [Compound 54, (((((2R,3S,4R,1S)-5-(2-chloro-4-(((S)-1-(4-chlorophenyl)ethyl)amino)imidazo[2,1-f][1,2,4]triazin-7-yl)-3,4-dihydroxytetrahydrofuran-2-yl)methoxy)(hydroxy)phosphoryl)methyl)phosphonic Acid], the IC50 in experiment [1] was less than 10 nM; in experiment [2], less than 1 nM.

For the molecule `O=P(O)(O)CP(=O)(O)OC[C@H]1O[C@@H](c2cnc3c(N4CCC[C@H]4c4ccccc4F)nc(Cl)nn23)[C@H](O)[C@@H]1O` [Compound 55, (((((2R,3S,4R,1S)-5-(2-chloro-4-((S)-2-(2-fluorophenyl)pyrrolidin-1-yl)imidazo[2,1-f][1,2,4]triazin-7-yl)-3,4-dihydroxytetrahydrofuran-2-yl)methoxy)(hydroxy)phosphoryl)methyl)phosphonic Acid], the IC50 is less than 10 nM in experiment [1] and less than 1 nM in experiment [2].

On to `O=P(O)(O)CP(=O)(O)OC[C@H]1O[C@@H](c2cnc3c(N4CCCC[C@H]4c4ccccc4)nc(Cl)nn23)[C@H](O)[C@@H]1O` [Compound 56, (((((2R,3S,4R,1S)-5-(2-chloro-4-((S)-2-phenylpiperidin-1-yl)imidazo[2,1-f][1,2,4]triazin-7-yl)-3,4-dihydroxytetrahydrofuran-2-yl)methoxy)(hydroxy)phosphoryl)methyl)phosphonic Acid], for which the IC50 in experiment [1] is less than 10 nM; in experiment [2], less than 1 nM.

Consider `N#Cc1nc(NC2CCCC2)c2ncc([C@@H]3O[C@H](COP(=O)(O)CP(=O)(O)O)[C@@H](O)[C@H]3O)n2n1` [Compound 62, (((((2R,3S,4R,5S)-5-(2-cyano-4-(cyclopentylamino)imidazo[2,1-f][1,2,4]triazin-7-yl)-3,4-dihydroxytetrahydrofuran-2-yl)methoxy)(hydroxy)phosphoryl)methyl)phosphonic Acid], for which the IC50 in experiment [1] was less than 10 nM; in experiment [2] it was less than 1 nM.

As to `O=P(O)(O)CP(=O)(O)OC[C@H]1O[C@@H](c2cnc3c(N[C@H]4CCc5ccccc54)nc(Cl)nn23)[C@H](O)[C@@H]1O` [Compound 63, [({[(2R,3S,4R,5S)-5-{2-chloro-4-[(1S)-2,3-dihydro-1H-inden-1-ylamino]imidazo[2,1-f][1,2,4]triazin-7-yl}-3,4-dihydroxyoxolan-2-yl]methoxy}(hydroxy)phosphoryl)methyl] phosphonic acid], the IC50 in experiment [1] is less than 10 nM; in experiment [2], less than 1 nM.

With `O=P(O)(O)CP(=O)(O)OC[C@H]1O[C@@H](c2cnc3c(N4CCC[C@H]4c4ccccc4)nc(Cl)nn23)[C@H](O)[C@@H]1O` [Compound 64, (((((2R,3S,4R,1S)-5-(2-chloro-4-((S)-2-phenylpyrrolidin-1-yl)imidazo[2,1-f][1,2,4]triazin-7-yl)-3,4-dihydroxytetrahydrofuran-2-yl)methoxy)(hydroxy)phosphoryl)methyl)phosphonic Acid], the IC50 in experiment [1] is less than 10 nM; in experiment [2] it was less than 1 nM.

As for `NC(=O)c1nc(NC2CCCC2)c2ncc([C@@H]3O[C@H](COP(=O)(O)CP(=O)(O)O)[C@@H](O)[C@H]3O)n2n1` [Compound 66, (((((2R,3S,4R,5S)-5-(2-carbamoyl-4-(cyclopentylamino)imidazo[2,1-f][1,2,4]triazin-7-yl)-3,4-dihydroxytetrahydrofuran-2-yl)methoxy)(hydroxy)phosphoryl)methyl)phosphonic Acid], the IC50 in experiment [1] was less than 10 nM; in experiment [2], less than 1 nM.

`O=P(O)(O)CP(=O)(O)OC[C@H]1O[C@@H](c2cnc3c(N4CC5CCCC5C4)nc(Cl)nn23)[C@@H](F)[C@@H]1O` (stereo partly drawn) [Compound 72, (((((2R,3R,4S,5S)-5-(2-chloro-4-(hexahydrocyclopenta[c]pyrrol-2(1H)-yl)imidazo[2,1-f][1,2,4]triazin-7-yl)-4-fluoro-3-hydroxytetrahydrofuran-2-yl)methoxy)(hydroxy)phosphoryl)methyl) phosphonic Acid]: the IC50 is less than 10 nM in experiment [1] and 1 to 9.9 nM in experiment [2].

For the molecule `O=P(O)(O)CP(=O)(O)OC[C@H]1OC(c2cnc3c(N4CCCC4)nc(Cl)nn23)[C@@H](F)[C@@H]1O` (stereo partly drawn) [Compound 73, (((((2R,3R,4S)-5-(2-chloro-4-(pyrrolidin-1-yl)imidazo[2,1-f][1,2,4]triazin-7-yl)-4-fluoro-3-hydroxytetrahydrofuran-2-yl)methoxy)(hydroxy)phosphoryl)methyl)phosphonic Acid], the IC50 in experiment [1] was in the range of 10 to 99 nM; in experiment [2], 1 to 9.9 nM.

On to `C[C@H](Nc1nc(Cl)nn2c(C3O[C@H](COP(=O)(O)CP(=O)(O)O)[C@@H](O)[C@@H]3F)cnc12)c1ccccc1F` (stereo partly drawn) [Compound 74, (((((2R,3R,4S)-5-(2-chloro-4-(((S)-1-(2-fluorophenyl)ethyl)amino)imidazo[2,1-f][1,2,4]triazin-7-yl)-4-fluoro-3-hydroxytetrahydrofuran-2-yl)methoxy)(hydroxy)phosphoryl)methyl)phosphonic Acid], for which the results for the IC50 in experiment [1] and in experiment [2] were 10 to 99 nM and 10 to 99.9 nM, respectively.
